Measurements: ChEMBL document CHEMBL2074071, “Fluorescent modified phosphatidylcholine floppase activity of reconstituted multidrug resistance-associated protein MRP1” (Biochim Biophys Acta, 2004)

Molecular target: Multidrug resistance-associated protein 1 (Homo sapiens, UniProt P33527)
Assay: TP_TRANSPORTER: translocation from outer to inner leaflet in MRP1-asolectin proteoliposome
Assay type: functional, subcellular

Multidrug resistance-associated protein 1, sequence (P33527 whole entry): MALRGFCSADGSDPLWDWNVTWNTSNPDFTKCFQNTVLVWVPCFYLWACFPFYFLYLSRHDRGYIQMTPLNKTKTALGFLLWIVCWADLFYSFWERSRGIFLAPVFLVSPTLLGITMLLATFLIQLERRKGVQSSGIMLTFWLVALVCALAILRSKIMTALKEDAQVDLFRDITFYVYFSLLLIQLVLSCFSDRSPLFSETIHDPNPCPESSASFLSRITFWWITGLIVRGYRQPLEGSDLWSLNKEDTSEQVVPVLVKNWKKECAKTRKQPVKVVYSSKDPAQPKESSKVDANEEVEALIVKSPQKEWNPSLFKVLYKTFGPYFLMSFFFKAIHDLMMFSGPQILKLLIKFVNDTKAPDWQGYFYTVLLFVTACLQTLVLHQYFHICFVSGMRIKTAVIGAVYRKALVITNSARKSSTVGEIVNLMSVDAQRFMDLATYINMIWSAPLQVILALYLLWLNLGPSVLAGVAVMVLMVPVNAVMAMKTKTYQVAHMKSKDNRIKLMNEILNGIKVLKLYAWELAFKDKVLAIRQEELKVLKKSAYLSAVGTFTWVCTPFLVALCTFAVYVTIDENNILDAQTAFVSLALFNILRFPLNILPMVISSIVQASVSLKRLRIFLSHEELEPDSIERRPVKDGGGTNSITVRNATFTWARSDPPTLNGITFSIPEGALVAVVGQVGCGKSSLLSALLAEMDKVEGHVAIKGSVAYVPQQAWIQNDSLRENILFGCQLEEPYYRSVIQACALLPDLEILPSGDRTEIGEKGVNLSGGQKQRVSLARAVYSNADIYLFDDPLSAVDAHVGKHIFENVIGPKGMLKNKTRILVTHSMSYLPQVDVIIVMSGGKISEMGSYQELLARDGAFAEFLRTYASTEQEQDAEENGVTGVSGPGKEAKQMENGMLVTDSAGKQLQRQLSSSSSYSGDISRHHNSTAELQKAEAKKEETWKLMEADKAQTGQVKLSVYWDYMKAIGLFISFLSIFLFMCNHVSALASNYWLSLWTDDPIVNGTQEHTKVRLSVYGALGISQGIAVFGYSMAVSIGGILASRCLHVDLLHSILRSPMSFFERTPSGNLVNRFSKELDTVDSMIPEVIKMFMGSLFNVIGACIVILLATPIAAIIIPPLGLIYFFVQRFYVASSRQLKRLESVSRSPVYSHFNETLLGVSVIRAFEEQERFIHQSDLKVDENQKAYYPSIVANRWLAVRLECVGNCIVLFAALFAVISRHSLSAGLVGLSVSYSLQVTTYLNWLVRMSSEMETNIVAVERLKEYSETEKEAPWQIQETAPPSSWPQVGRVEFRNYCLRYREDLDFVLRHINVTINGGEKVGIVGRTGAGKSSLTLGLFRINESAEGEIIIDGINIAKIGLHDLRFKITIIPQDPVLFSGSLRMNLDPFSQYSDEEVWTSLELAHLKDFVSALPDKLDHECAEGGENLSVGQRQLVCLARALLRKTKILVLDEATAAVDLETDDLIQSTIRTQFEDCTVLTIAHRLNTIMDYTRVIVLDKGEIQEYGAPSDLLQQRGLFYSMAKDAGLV

Compound: CCCCCC(=O)OCC(COP(=O)([O-])OCC[N+](C)(C)c1ccc([N+](=O)[O-])c2nonc12)OC(=O)CCCCC (stereo unspecified)
- Activity: substrate []
